Data taken from a melting point compilation (Tetko et al.).

Compound	melting point
CCOC(=O)c1cn[nH]c1NC(=O)Nc1ccc(Cl)cc1	260 to 261 °C
c1ccc(-c2cccc3ccccc23)cc1	45 °C
O=[N+]([O-])c1ccc(Sc2ccccc2)cc1	56 °C
CCOP(=O)(OCC)OC(=CCl)c1ccc(Cl)cc1Cl	-20 °C
O=C(O)COc1ccc(C(=O)c2cccs2)c(Cl)c1Cl	149 °C
CCOc1cccc2ccccc12	5.5 °C
Nc1nn2c(C(F)(F)F)cc(-c3cccs3)nc2c1/N=N/c1cccc([N+](=O)[O-])c1	245 °C
O=C1c2ccccc2C(=C(c2ccccc2)c2ccccc2)c2ccccc21	203 to 207 °C
Cc1ccc(Cl)c([N+](=O)[O-])c1	7 °C
C#CC1(O)CCC2C3CC=C4CC(O)CCC4(C)C3CCC21C (configuration not stated)	248 °C
COC(=O)C1(S(=O)(=O)c2ccc(Br)cc2)CCCC1	104 °C
Cc1ccc(C(=O)C2=NOC3C(=O)N(c4ccc(O)cc4)C(=O)C23)cc1 (configuration not stated)	120 °C
COc1ccccc1N/N=C(\C#N)c1nc2ccccc2n1C	200 to 202 °C
N=c1sc(C(=O)c2cccs2)nn1-c1c(Cl)cc(Cl)cc1Cl	209 °C
COc1ccccc1C1Nn2c(COc3ccccc3)nnc2S1 (configuration not stated)	126 °C
O=CNC1CC=CCC(NC=O)CC=CC1 (configuration not stated)	289 to 290 °C
CCCCc1c(C)nc(NCC)nc1OS(=O)(=O)N(C)C	50.5 °C
CC(C)(C)OC(=O)N1CCC[C@H]1CO	61 °C
COC(=O)C1(C(=O)OC)Cc2cc(OC)ccc2C(=O)O1	134 °C
Cc1cc(C)c(CO)c(C)c1	87 °C
Cc1c(C#N)c2ccccc2n1C	105 °C
NC1c2ccccc2CC1O (configuration not stated)	117 to 121 °C

Compound	melting point
CCc1ccc(C(C)=O)cc1	-20.6 °C
CC(=O)c1c(C)cn(C)c1C	81 to 82 °C
CC(O)c1ccccc1C(F)(F)F (configuration not stated)	38 to 40 °C
COc1ccccc1Oc1ccc(S(=O)(=O)Cl)cc1	54 to 56 °C
O=S(=O)(Cl)c1csc2ccccc12	86 to 88 °C
c1ccc2c(c1)c1cccc3c4c5ccccc5c5cccc(c2c13)c54	305 °C
CCOC(=O)Cc1cc(CC(=O)OCC)c(NC(=O)OCC)cc1NC(=O)OCC	140 °C
C[C@]12CC(=O)C[C@@]1(C)CC(=O)C2	228 to 230 °C
O=C(O)c1cccc(CSc2cccs2)c1	108 to 110 °C
O=C(CBr)c1nccs1	54 to 55 °C
CC(=O)NCCO	16 °C
CCOP(=S)(OCC)Oc1cnc2ccccc2n1	31.5 °C
Clc1ccc2c(c1)Oc1cc(Cl)c(Cl)cc1O2	162 °C
O=C(O)c1cc(I)ccc1Cl	161 to 163 °C
Cc1[nH]c2cc(C(F)(F)F)ccc2c1C(=O)N1CCCCC1	174 to 175 °C
Cc1nc2cc([N+](=O)[O-])ccc2s1	133 °C
O=c1[nH]nc(-c2ccccc2)c(=S)n1-c1ccc(F)c(Cl)c1	138 °C
COc1ccc2cc(Nc3ccc4c(c3)OCCO4)ccc2c1	102 °C
Cc1ccc(-c2nnc(CCl)o2)cc1	121 to 123 °C
C=Cc1ccc(C(N)=O)cc1	170 °C
O=C(O)CN(CC(=O)O)CC(=O)O	245 °C
O=CCC=O	72 °C

Compound	melting point
COC(=O)/C(=C/c1ccc([N+](=O)[O-])cc1)c1ccccc1C(=O)OC	121 to 122 °C
CSc1nc2ccc(N)cc2s1	105 to 107 °C
O=S(=O)(Cl)c1ccc(Cl)cc1Cl	54 °C
COC(=O)c1sccc1NC(=O)CBr	91 to 94 °C
CN(C)CCC#N	-43 °C
O=C(c1ccc2ccccc2c1)C(Br)c1ccccc1 (configuration not stated)	101 to 108 °C
O=C1N[C@@H](c2ccccc2)CO1	130 to 133 °C
Brc1cc(Br)c(Br)c(Br)c1	99.5 °C
Cn1nc(C(C)(C)C)cc1C(=O)O	151 to 154 °C
C=C1C(=O)C23C(OC(C)=O)CC4C(C)(C)CCC(OC(C)=O)C4(C)C2C(OC(C)=O)CC1C3OC(C)=O (configuration not stated)	277 °C
CC1CCOS(=O)O1 (configuration not stated)	5 °C
Nc1ccc(Sc2ccc([N+](=O)[O-])cc2)cc1	144 °C
Nc1cccc(-c2cncnc2)c1	163 to 166 °C
NC(=O)c1ncccc1O	195 °C
CN(C)c1ccc(C2C3=C(CC(C)(C)CC3=O)Nc3c2ccc2ccccc32)cc1 (configuration not stated)	271 °C
COC(=O)CS(C)(=O)=O	62 to 63 °C
O=C(NCO)NS(=O)(=O)c1ccc(NC(=O)c2ccccc2C(=O)O)cc1	162 °C
Cc1nn(-c2ccccc2)nc1C(N)=O	175 to 177 °C
CC1=CCC(=O)Nc2c1cnn2-c1ccc(Cl)cc1	177 to 178 °C
Cn1nc(-c2cccs2)cc1C=O	76 to 77 °C
CCOC(=O)C(=C(C)OC(=O)c1ccccc1)c1cc(C(C(=O)OCC)=C(C)OC(=O)c2ccccc2)c([N+](=O)[O-])cc1[N+](=O)[O-]	167 °C
O=C(O)CCc1ccc(Cl)c(Cl)c1	97 to 99 °C

Compound	melting point
CC(=O)N[C@@H](C)C(=O)N[C@@H](C)C(=O)N[C@@H](C)C(=O)O	248 °C
CCOc1ccc(NC(=O)C(C(F)(F)F)C(F)(F)F)cc1	181 °C
CC(=O)Nc1ccc(N)cc1C	141 to 142 °C
OC1(Cc2ccccc2)CCNCC1	80 to 85 °C
COC(=O)C1Nc2ccccc2C1(C)C (configuration not stated)	168 to 170 °C
CC1CCC(C(C)C)C(OC(=O)OC2CC(C)CCC2C(C)C)C1 (configuration not stated)	106 °C
CCSC(=O)Cl	-60 °C
O=C(O)c1ncccc1N1CCCCC1	102 to 109 °C
O=C(Cl)c1ccc2nonc2c1	55 to 58 °C
CC(=O)Nc1cc(C)no1	161 to 162 °C
C1=C\c2ccc(cc2)-c2ccccc2-c2ccc/1cc2	230 °C
COc1cc2c(c(OC)c1OC)-c1ccc(SC)c(=O)cc1C(NC(C)=O)CC2 (configuration not stated)	193 °C
CSc1nc2cc(N=Cc3ccc([N+](=O)[O-])cc3)ccc2[nH]1	259 to 260 °C
CCC1CCCCN1C(=O)COC(=O)c1ccccc1 (configuration not stated)	54.5 °C
Cc1ccc([Si](C)(Cl)Cl)cc1	57 °C
CCOC(=O)c1cn(C(C)=O)nc1N	110 °C
Nc1ccc2ccccc2c1N	98.5 °C
Cc1ccc(NC(=O)C(C(F)(F)F)C(F)(F)F)c(C)c1	193 °C
CCCc1ccc(NC(C)=O)cc1	98 to 100 °C
CCOC(=O)c1c(NC(=S)Nc2ccc(OC)cc2)sc2c1CCCC2	163 to 165 °C
N#Cc1cc2ccccc2cc1C#N	253 to 257 °C
CC(C)C(C(=O)O)c1ccccc1 (configuration not stated)	60 °C

Compound	melting point
C=C1CC(=O)O1	-6.5 °C
Nc1nc(=O)[nH]cc1F	296 °C
O=C(c1ccc2c(c1)C(=O)OC2=O)c1ccc2c(c1)C(=O)OC2=O	219 to 226 °C
CSCCC(NC(=O)c1cccnc1SC)C(=O)O (configuration not stated)	157 to 161 °C
NCCCN1CCOCC1	-15 °C
Cc1ccc(C(C)(C)C)c(O)c1	46.5 °C
CCOC(=O)c1c[nH]c(S)n1	191 to 193 °C
O=C1Cc2ccccc21	14 °C
COc1cccc(F)c1C#N	103 °C
BrCc1ccccc1I	56 °C
CCCCCCCC1CCCC(=O)O1 (configuration not stated)	-12 °C
OC(CS)C(O)CS (configuration not stated)	83 °C
Cc1cc(C(=O)O)cc(C)c1[N+](=O)[O-]	224 °C
Cc1cc(Cl)nnc1Cl	87 °C
COc1ccc(-n2c(SC)nc3nc(SC)n(C)c3c2=O)cc1	213 to 214 °C
O=Cc1ccccc1OCC(=O)O	133 °C
CC(CCl)OP(=O)(OC(C)CCl)OC(C)CCl (configuration not stated)	-40 °C
O=S1(=O)CCOCC1	132 °C
O=[N+]([O-])CCO	-80 °C
c1ccc(CN2CCCNCCN(Cc3ccccc3)CCCNCC2)cc1	68 °C
O=C1CNC(=S)N1	230 °C
OCc1cc(Cl)nc(Cl)c1	128 to 130 °C

Compound	melting point
CCOC(=O)c1c[nH]c(=O)nc1C(F)(F)F	165 °C
c1ccc2c(c1)OCCOCCOCCOc1ccccc1OCCOCCOCCO2	102 to 106 °C
COC(=O)c1ccc(C(=O)OC)o1	112 °C
OCC(c1ccccc1)c1ccccc1	64.5 °C
N#CCc1nc(-c2ccc3c(c2)OCCO3)cs1	116 to 118 °C
FC(F)(F)COc1ccc(OCC(F)(F)F)cc1	76 °C
COc1ccc(N2C(=O)C3ON=C(C(=O)c4ccc(C)cc4)C3C2=O)cc1 (configuration not stated)	126 °C
NC(CO)C(=O)O (racemic)	240 °C
O=C(O)c1cncc(-c2ccccc2)c1	260 °C
Nc1ccc2nsnc2c1	112 to 114 °C
Nc1cc(=O)oc2ccccc12	232 to 234 °C
COc1ccc(F)c(CBr)c1F	55 °C
N#C/C(=C/c1ccc(F)cc1)c1nc(-c2ccc(Cl)cc2)cs1	184 °C
Cc1ccc(NC(=O)NC(C)(C)c2ccccc2)cc1	203 °C
COC(=O)c1cc(Br)c(Br)s1	79 °C
CNC(=S)NCO	88 °C
COc1cccc(C=Nn2c(C)cc(C)c(C#N)c2=O)c1O	209 to 212 °C
COc1cc(O)cc(OC)c1OC	146 to 149 °C
Cn1cc(CCC(=O)O)c(=O)n(C)c1=O	225 °C
C=CCN1CCCC1CNC(=O)c1cc(S(=O)(=O)NC)c(N)cc1OC (configuration not stated)	169 °C
Cc1cc(C)c(NC(=O)CN(CC(=O)O)CC(=O)O)c(C)c1	218 to 221 °C
CC(=O)c1cc2cc(Cl)ccc2o1	97 to 98 °C
